# Test results published in patent publication US20180185408A1, “ANTIFUNGAL NYLON-3 POLYMERS AND COMBINATION THERAPY USING THEM TO TREAT FUNGAL INFECTIONS” (priority 2016, published 2018).
# “And” between values parts separate entries of the source, which are not always exact repeats. Identical values can stand only once. Like-named read-outs stand apart in the source and are kept apart here.
# Legend:
# [1] = tested on: P. murina; assay: Pneumocystis ATP assay (ATP-lite M); type: cell-based, Pneumocystis murina
# [2] = tested on: P. carinii; assay: Pneumocystis ATP assay (ATP-lite M); type: cell-based, Pneumocystis carinii
# [3] = tested on: B. dermatitidis; assay: MIC80 against dimorphic fungi (CLSI M38-A2); type: cell-based; conditions: Blastomyces dermatitidis
# [4] = tested on: Aspergillus fumigatus
# [5] = tested on: Paecilomyces variotii; assay: MIC100 against filamentous fungi (CLSI M38-A2); type: cell-based
# [6] = tested on: Coccidioides spps.; assay: microbe, parasite or virus in culture; type: cell-based
# [7] = tested on: Scedosporium prolificans; assay: MIC100 against filamentous fungi (CLSI M38-A2); type: cell-based
# [8] = tested on: Scedosporium apoiospermum; assay: MIC100 against filamentous fungi (CLSI M38-A2); type: cell-based; conditions: for polymer efficacy against filamentous fungi, 100%: Clinical isolate
# [9] = tested on: H. capsulatum; assay: microbe, parasite or virus in culture; type: cell-based; conditions: Histoplasma capsulatum
# [10] = tested on: Fusarium oxysporum; assay: MIC100 against filamentous fungi (CLSI M38-A2); type: cell-based; conditions: for polymer efficacy against filamentous fungi, 100%: Clinical isolate; for MIC: Fusarium oxysporum
# [11] = tested on: P. marneffei mold; assay: MIC by broth microdilution (EUCAST-AST-[…]); type: cell-based; conditions: 1.00×10^5 cells/mL, 35° C.
# [12] = tested on: Aspergillus fumigatus; assay: Checkerboard microdilution synergy (FIC); type: cell-based; conditions: for MIC: Aspergillus fumigatus; for MIC azole combination: POS in combination with MM:TM
# [13] = tested on: Aspergillus spp.; assay: microbe, parasite or virus in culture
# [14] = tested on: Aspergillus terreus; assay: microbe, parasite or virus in culture
# [15] = tested on: Aspergillus terreus; conditions: A. terreus; RPMI 1640 (0.2% Glucose); 1.00×10^5 cells/mL; 35° C.
# [16] = tested on: Rhizopus arrhizus; assay: MIC100 against filamentous fungi (CLSI M38-A2); type: cell-based; conditions: for polymer efficacy against filamentous fungi, 100%: Clinical isolate
# [17] = tested on: Aspergillus fumigatus; assay: microbe, parasite or virus in culture
# [18] = MM:TM with posaconazole, isolate CEA10 (Sensitive), […] 10^5 cells/mL
# [19] = MM:TM with posaconazole, isolate F11628 (Resistance), […] 10^5 cells/mL
# [20] = MM:TM with posaconazole, isolate F16216 (Resistance), […] 10^5 cells/mL
compound,measurement,setting,value
CC1(C)S[C@@H]2[C@H](NC(=O)[C@H](N)c3ccccc3)C(=O)N2[C@H]1C(=O)O [Ampicillin],P. murina % reduction in ATP/vehicle control,"[1]; 10 ug/mL, 24 hour",0%
same,P. murina % reduction in ATP/vehicle control,"[1]; 10 ug/mL, 48 hr",0.9%
same,P. murina % reduction in ATP/vehicle control,"[1]; 10 ug/mL, 72 hr",0%
same,P. carinii % reduction in ATP/vehicle control,"[2]; 10 ug/mL, 24 hour",12.28%
same,P. carinii % reduction in ATP/vehicle control,"[2]; 10 ug/mL, 48 hr",0%
same,P. carinii % reduction in ATP/vehicle control,"[2]; 10 ug/mL, 72 hr",2.65%
"C[C@@H](c1ncncc1F)[C@](O)(Cn1cncn1)c1ccc(F)cc1F [VOR, voriconazole]",MIC80,[3]; Blastomyces dermatitidis isolate BD1,≤ 0.03 µg/mL
same,MIC80,[3]; Blastomyces dermatitidis isolate BD3,0.5 µg/mL
same,"polymer efficacy against filamentous fungi, 100%","[4]; A. fumigatus AF1, AF293, Lung",1
same,"polymer efficacy against filamentous fungi, 100%","[4]; A. fumigatus AF2, Clinical isolate, Azole resistant",1
same,"polymer efficacy against filamentous fungi, 100%","[4]; A. fumigatus AF3, Clinical isolate, Azole susceptible",0.25
same,"polymer efficacy against filamentous fungi, 100%","[5]; P. variotii QC, CLSI QC isolate for susceptibility testing",0.125
same,MIC,"[5]; Paecilomyces variotii, read-out: MIC100",0.125 µg/mL
same,MIC80,[6]; Coccidioides sp. isolate Cocci 1,0.25 µg/mL
same,MIC80,[6]; Coccidioides sp. isolate Cocci 2,0.125 µg/mL
same,MIC80,[6]; Coccidioides sp. isolate Cocci 3,0.06 µg/mL
same,MIC80,[6]; Coccidioides sp. isolate Cocci 5,0.125 µg/mL
same,MIC80,[6]; Coccidioides sp. isolate Cocci 6,0.25 µg/mL
same,MIC80,[6]; Coccidioides sp. isolate Cocci 7,0.125 µg/mL
same,MIC80,[6]; Coccidioides sp. isolate Cocci 8,0.125 µg/mL
same,MIC80,[6]; Coccidioides sp. isolate Cocci 9,1 µg/mL
same,MIC80,[6]; Coccidioides sp. isolate Cocci 10,0.06 µg/mL
same,"polymer efficacy against filamentous fungi, 100%","[7]; L. prolificans LP1, Chest Wound, Clinical isolate",>16
same,MIC,"[7]; Lomentospora prolificans, S. prolificans",> 16 µg/mL
same,MIC100,[7]; Scedosporium prolificans isolate LP1,>16 µg/mL
same,"polymer efficacy against filamentous fungi, 100%","[8]; S. apiopsermum SA1, Toe",1
same,"polymer efficacy against filamentous fungi, 100%","[8]; S. apiopsermum SA2, Elbow Tissue",1
same,MIC,[8]; Scedosporium apiopsermum isolate SA1,1 µg/mL
same,MIC100,[8]; Scedosporium apiopsermum isolate SA2,1 µg/mL
same,MIC80,[9]; Histoplasma capsulatum isolate HC1,≤ 0.03 µg/mL
same,MIC80,[9]; Histoplasma capsulatum isolate HC2,0.25 µg/mL
same,MIC80,[9]; Histoplasma capsulatum isolate HC3,0.125 µg/mL
same,MIC80,[9]; Histoplasma capsulatum isolate HC4,0.06 µg/mL
same,MIC80,[9]; Histoplasma capsulatum isolate HC5,0.25 µg/mL
same,MIC80,[9]; Histoplasma capsulatum isolate HC6,0.125 µg/mL
same,MIC80,[9]; Histoplasma capsulatum isolate HC7,0.5 µg/mL
same,MIC80,[9]; Histoplasma capsulatum isolate HC8,0.25 µg/mL
same,MIC80,[9]; Histoplasma capsulatum isolate HC9,0.06 µg/mL
same,MIC80,[9]; Histoplasma capsulatum isolate HC10,0.06 µg/mL
same,"polymer efficacy against filamentous fungi, 100%","[10]; F. oxysporum FO1, Blood",4
same,"polymer efficacy against filamentous fungi, 100%","[10]; F. oxysporum FO2, Bone",4
same,"polymer efficacy against filamentous fungi, 100%","[10]; F. oxysporum FO3, Blood",>16
same,MIC,[10]; Fusarium oxysporum isolate FO1,4 µg/mL
same,MIC,[10]; Fusarium oxysporum isolate FO2,4 µg/mL
same,MIC,[10]; Fusarium oxysporum isolate FO3,> 16 µg/mL
"CC[C@@H]([C@H](C)O)n1ncn(-c2ccc(N3CCN(c4ccc(OC[C@@H]5CO[C@@](Cn6cncn6)(c6ccc(F)cc6F)C5)cc4)CC3)cc2)c1=O [Posaconazole, posaconazole]",MIC,[11]; RPMI 1640 (0.2% Glucose),0.5 µg/mL
same,MIC,"[11]; Talaromyces marneffei, RPMI 1640 (2% Glucose), read-out: MIC",0.5 µg/mL
same,FICazole,"[12]; 08-12-12-13 Cyp51 [TR34/L98H], POS with MM:TM",1.000
same,FICazole,"[12]; 08-31-08-91 Cyp51 [TR34/L98H], POS with MM:TM, listed as POS",0.500 and 0.250
same,FICazole,"[12]; 08-36-03-25 Cyp51 [TR34/L98H], POS with MM:TM, listed as POS",0.500 and 0.474
same,FICazole,"[12]; 12-7505220 Cyp51 [TR34/L98H], POS with MM:TM, listed as POS",0.240 and 0.263
same,FICazole,"[12]; AF293, POS with MM:TM",0.21
same,FICazole,"[12]; AF293, POS with MM:TM, listed as POS",0.25
same,MIC,"[12]; 48 h, CEA10, MM:TM with Posaconazole, single agent, 48 h, read-out: MIC Alone",0.7 µM
same,MIC,"[12]; 48 h, CEA10, POS as single agent, 35° C.",0.75 µg/mL
same,MIC,"[12]; 48 h, F11628, POS as single agent, 35° C.",48 µg/mL and 68.5 µM
same,MIC,"[12]; 48 h, F16216, POS as single agent, 35° C.",2 µg/mL and 2.85 µM
same,MIC,[12]; [18],0.5 µg/mL
same,MIC,[12]; [19],48 µg/mL
same,MIC,[12]; [20],1.75 µg/mL
same,MIC Combined,"[12]; CEA10, MM:TM with Posaconazole in combination, 48 h",0.1 µM
same,MIC azole combination,"[12]; CEA10, 48 h, 35° C., listed as POS",0.13 μg/mL and 0.19 μM
same,FICazole,"[12]; CEA10, POS with MM:TM, listed as POS",0.173 and 0.250 and 0.200
same,FICazole,"[12]; D5 Cyp51 [G54E], POS with MM:TM, listed as POS",0.125 and 0.063
same,FICazole,"[12]; D7 Cyp51 [WT], POS with MM:TM",0.263
same,MIC azole combination,"[12]; F11628, 48 h, 35° C.",0.13 µM
same,FICazole,"[12]; F11628, POS with MM:TM, listed as POS",0.002 and 0.001
same,MIC azole combination,"[12]; F16216, 48 h, 35° C.",2.14 µM
same,FICazole,[12]; [18],0.200
same,FICazole,[12]; [19],0.001
same,FICazole,[12]; [20],0.571
same,increase in efficacy in the presence of MM:TM,[12]; azole-resistant strain F11628,> 600 fold
same,MIC,[13],~1 µM
same,MIC,[14],1.4 µM and 1 µg/mL
same,MIC,[14]; 48 h,1 µg/mL and 1.4 µM
same,MIC,[15],1.0 µg/mL
same,"polymer efficacy against filamentous fungi, 100%","[16]; R. arrhizus RA1, Nose Tissue",0.5
same,"polymer efficacy against filamentous fungi, 100%","[16]; R. arrhizus RA2, Tissue Upper Extremity",0.5
same,"polymer efficacy against filamentous fungi, 100%","[16]; R. arrhizus RA3, Palate Tissue",0.5
same,MIC,[16]; Rhizopus arrhizus isolate RA1,0.5 µg/mL
same,MIC100,[16]; Rhizopus arrhizus isolate RA2,0.5 µg/mL
same,MIC100,[16]; Rhizopus arrhizus isolate RA3,0.5 µg/mL
same,MIC,"[17]; 48 h, A. fumigatus AF293, visually, 1 × 10^5 cells/mL, 35° C.",2 µg/mL and 2.9 µM
same,MIC,"[17]; 48 h, A. fumigatus CEA10, visually, 1 × 10^5 cells/mL, 35° C.",0.5 µg/mL and 0.7 µM
same,MIC,"[17]; 48 h, A. fumigatus F11628, visually, 1 × 10^5 cells/mL, 35° C.",> 32 µg/mL and > 45.7 µM
same,MIC,"[17]; 48 h, A. fumigatus F16216, visually, 1 × 10^5 cells/mL, 35° C.",1.7 µg/mL and 2.5 µM
same,MIC,[17]; A. fumigatus AF293,2.9 µM
same,MIC,"[17]; A. fumigatus AF293, RPMI 1640 (0.2% Glucose), 1.00×10^5 cells/mL, 35° C.",2 µg/mL
same,MIC,"[17]; A. fumigatus AF293, RPMI 1640 (2% Glucose), 1.00×10^5 cells/mL, 35° C.",1 µg/mL
same,MIC,[17]; A. fumigatus CEA10,0.7 µM
same,MIC,"[17]; A. fumigatus CEA10, RPMI 1640 (0.2% Glucose), 1.00×10^5 cells/mL, 35° C.",0.5 µg/mL
same,MIC,"[17]; A. fumigatus CEA10, RPMI 1640 (2% Glucose), 1.00×10^5 cells/mL, 35° C.",0.5 µg/mL
same,MIC,[17]; A. fumigatus F11628,> 45.6 µM
same,MIC,"[17]; A. fumigatus F11628, RPMI 1640 (0.2% Glucose), 1.00×10^5 cells/mL, 35° C.",> 32 µg/mL
same,MIC,"[17]; A. fumigatus F11628, RPMI 1640 (2% Glucose), 1.00×10^5 cells/mL, 35° C.",> 32 µg/mL
same,MIC,[17]; A. fumigatus F16216,2.5 µM
same,MIC,[17]; azole resistant strain F11628,> 45 µM
same,MIC,[17]; strain F16216,2.5 µM
N=C(N)c1ccc(OCCCCCOc2ccc(C(=N)N)cc2)cc1 [Pentamidine],P. murina % reduction in ATP/vehicle control,"[1]; 1 ug/mL, 24 hour",90.80%
same,P. murina % reduction in ATP/vehicle control,"[1]; 1 ug/mL, 48 hr",84.39%
same,P. murina % reduction in ATP/vehicle control,"[1]; 1 ug/mL, 72 hr",91.86%
same,P. carinii % reduction in ATP/vehicle control,"[2]; 1 ug/mL, 24 hour",86.79%
same,P. carinii % reduction in ATP/vehicle control,"[2]; 1 ug/mL, 48 hr",87.62%
same,P. carinii % reduction in ATP/vehicle control,"[2]; 1 ug/mL, 72 hr",95.23%
